Biological target: Pin1 (Homo sapiens, UniProt Q13526)
Assay: alpha-chymotrypsin protease-coupled PPIase assay
Assay type: biochemical

Sequence of Pin1 (Q13526 whole entry): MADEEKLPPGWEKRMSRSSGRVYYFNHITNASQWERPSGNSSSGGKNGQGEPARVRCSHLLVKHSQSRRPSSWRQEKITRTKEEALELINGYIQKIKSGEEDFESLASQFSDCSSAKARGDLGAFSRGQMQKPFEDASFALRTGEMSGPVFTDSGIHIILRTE

IC50 [µM] | SMILES
61 ± 8 | CC(=O)NC(COP(=O)(O)O)C(=O)C1CCCCC1C(=O)NCCc1c[nH]c2ccccc12 (racemic) [rac-2]
260 ± 30 | CC(=O)N[C@@H](COP(=O)(O)O)C(=O)[C@@H]1CCCC[C@H]1C(=O)NCCc1c[nH]c2ccccc12 [compound 1, 1]

Source: PMC3446931, “Cyclohexyl Ketone Inhibitors of Pin1 Dock in a Trans-Diaxial Cyclohexane Conformation” (PLoS ONE, 2012)
